Conditions: Crystal, Rate of evaporation

vapor or sublimation pressure (420.7 K): 0.0009 kPa | vapor or sublimation pressure (440.3 K): 0.0029 kPa | vapor or sublimation pressure (469.9 K): 0.0425 kPa | vapor or sublimation pressure (499.2 K): 0.5263 kPa | vapor or sublimation pressure (517.5 K): 2.162 kPa
Structure (SMILES): CC(C)C[C@H](N)C(=O)O [L-leucine]

From the NIST ThermoML archive (doi:10.1016/j.tca.2008.10.009)
